Measurements taken from patent US6900024B2, “T cell receptor ligands and methods of using same” (The United States of America as represented by the …, priority 1993, dated 2005).
Ends that are not written are not given here. * marks the point of attachment. long‑chain biotin = O=C(CCCC[C@@H]1SC[C@@H]2NC(=O)N[C@@H]21)NCCCCCC(=O)*

Assays:
[1] = system: MHC molecules with kss Eβ chains; experiment: Peptide binding to cell-associated class II MHC molecules using biotinylated peptides; set-up: species or system mouse
Experimental: A modified version of the assay described in Busch et al., Int. Immunol., 2, 443-51 (1990), was used to measure peptide binding to cell-associated class II MHC molecules. After extensive washing in phosphate buffered saline (PBS)-1% bovine serum albumin (BSA), 2×10^5 DAP.3 cells or DAP.3 transfectants expressing various EαEβ molecules were incubated at 37° C. in 200 μl of PBS-2% FCS containing the indicated concentration of biotinylated peptide. In the competition experiments competitors were added at the same time as labeled peptide and at the indicated concentrations. After 4 hours, the cells were washed and stained with a sandwich of FITC-avidin (Vector), biotinylated-anti-avidin (Vector), and FITC-avidin (Vector). After washing, the cells were analyzed on a FAScan flow cytometer for fluorescence. Only viable cells were considered in the analysis, as determined by PI staining. The data are expressed as net mean fluorescence intensity (MFI), calculated by subtracting from the actual MFI the MFI obtained by staining in the absence of biotinylated-peptide. Percent inhibition in the competition experiments was calculated as: % of I=(net MFI without competitor−net MFI with competitor)/(net MFI without […]).

[2] = system: 3C6 Th1 cells; experiment: IL-2 production by 3C6 Th1 cells co-cultured with transfected L cells (CTLL indicator cells); format: cell-based, mouse; conditions: L cells expressing MHC molecules with kss Eβ chains
Experimental: Production of IL-2 and IL-3 in response to L cell transfectants in the presence or absence of added peptide was measured as described in Ronchese et al., Nature, 329, 254-6 (1987b). In brief, 2−5×10^4 T cells were incubated with 2−5×10^4 transfected L cells in the wells of 96-well flat bottom culture plates in 200 μl of complete medium with or without various concentrations of peptide antigen. Supernatants were collected after 24 hours and assayed for IL-2 content using CTLL indicator cells, or for IL-3 content using FDC.1 cells. IL-2 and IL-3 units were calculated as the inverse of the dilution giving 50% of the maximum ^3H-thymidine incorporation by CTLL (IL-2) or FDC.1 (IL-3) cells observed with reference IL-2 and IL-3 preparations. Proliferative responses were measured by assessing ^3H-thymidine incorporation between 48-66 hrs of culture. For experiments in which the data are expressed as “% max” or “% alloresponse”, the actual absolute 100% responses were: IL-2 alloresponse, 10-40 units/ml; IL-3 alloresponse, 100-500 units/ml; IL-2 response to EαEβ^k plus PCC peptide, 150-300 units/ml; IL-3 response to EαEβ^k plus PCC peptide, 1000-10,000 units/ml; IL-2 response to fixed cells bearing EαEβ^k plus PCC peptide, 30-50 units/ml; IL-3 response to fixed cells bearing EαEβ^k plus PCC peptide, 50-200 units/ml. […]

Row | Substance | binding to MHC molecule with kss chains, competition for binding of biotinylated-DASP ([1]; biotinylated-DASP 25 μM, FIG. 2A) | direct binding of biotinylated peptide to MHC molecules with kss chains ([1]; FIG. 3A) | effect of peptide on alloreactive stimulation of IL-2 production [2]
1 | HEL 46-61: hen egg lysozyme (HEL) peptide 46-61 | able to bind the MHC molecule with kss chains to a similar extent as the inhibitory PCC 81-104 peptide |  | 
2 | HEL 81-96: hen egg lysozyme (HEL) peptide 81-96, with NH2-terminal long-chain biotin in FIG. 3 ({long‑chain biotin}-SALLSSDITASVNCAK; UniProt P00698 99-114, looked up, fragment) |  | bound well to the MHC molecules with kss chains | lacked ability to inhibit alloreactive stimulation of IL-2 production
